Where two headings read alike, the source gives them in different places.

The values below come from patent US7192922B2, “Method of treating left ventricular dysfunction” (Allegheny-Singer Research Institute, priority 2002, dated 2007).

The test system of one series is plasma insulin. The conditions noted are these: cited from earlier work; for plasma insulin levels: GIP 2.0, GLP-1 1.5 pmol·kg−1·min−1.
The subject of series [1] is normal dogs and dogs with advanced dilated cardiomyopathy. Nature of the series: Acute graded infusion, hemodynamic effects in conscious chronically instrumented dogs. The following applies: for effects on left ventricular pressure, left ventricular dP/dt, cardiac output, heart rate: graded infusions for ten minutes, six normal dogs and six dogs with advanced DCM. It counts as in vivo, dog. From the text: FIGS. 2a–2d show the dose response to rGLP-1 in normal conscious dogs and conscious dogs with advanced DCM compared to the response to the sympathomimetic, dobutamine.
FIG. 1 illustrates characteristic instrumentation of conscious, chronically instrumented dogs studied in the laboratory. Under sterile surgical technique, the animals are instrumented as indicated and allowed to recover fully from their surgery. At the time, they are taught to lie quietly on the experimental table before study. To determine if acute GLP-1 (7–36 amide) infusion is associated with hemodynamic effects in conscious chronically instrumented dogs, graded infusions for ten minutes at doses of 1.25, 2.5, 5, 10 and 20 pmol/kg/min in six normal dogs and in six dogs with advanced dilated cardiomyopathy were studied. The response of the graded infusion to the classic iontopic agent, Dobutamine, (2.5, 5, 7.5, 10 and 15 μ/kg/min.) was compared. […] Nikolaidis, L A, Hentosz, T, Doverspike, A, et al., “Catecholamine stimulation is associated with impaired myocardial O2 utilization in heart failure,” Cardiovas. Res., 2002;53:392–404, incorporated by reference herein.

The next series concerns restrained rats. The following applies: rat, in vivo, sc; cited from earlier work.
For series [2], the system named is endothelial dependent coronary vasodilation. Briefly: Coronary flow responses to acetylcholine and nitroglycerin in conscious dogs with advanced DCM after 48-hour infusion. It counts as in vivo, dog. The method, then:
FIGS. 7a and 7b show the effects of rGLP-1 on endothelial dependent coronary vasodilation in conscious dogs. Advanced DCM was associated with impaired coronary flow responses to acetylcholine. These responses were restored following 48-hour infusion of rGLP-1. The response to the non-endothelial dependent vasodilator, nitroglycerin was unaffected.
(§1) A 48 hour continuous intravenous infusion of GLP-1 (7–36 amide), (1.5 pmol/kg/min) in five normal dogs to determine the hemodynamic effect of chronic infusion in the absence of dilated cardiomyopathy was conducted. […] FIGS. 3–5 illustrates the effects of GLP-1 (7–36 amide) infusion (1.5 pmol/kg/min) intravenously for 48 hours in 20 conscious, chronically instrumented animals with advanced heart failure. These effects have been compared to similarly instrumented animals with advanced heart failure that received a control saline infusion of equal volume ([…]) illustrate the hemodynamic effects of chronic GLP-1 infusion in advanced DCM. GLP-1 (7–36 amide) infusion was associated with a restoration of left ventricular pressure, improvement in contractility, improvement in cardiac output, and reduction in heart rate and LVEDP. […] GLP-1 was associated with restoration of endothelial dependent vaso dilatation response to acetylcholine (FIG. 7). […] GLP-1 had little effect on increased plasma insulin levels in the setting of euglycemia.

Series [3] deals with conscious dogs with advanced DCM. Briefly: 48 hour intravenous infusion, hemodynamics and myocardial sympathetic activity in conscious dogs with advanced heart failure (DCM). Format: in vivo, dog.
From the text: FIGS. 3a–3d show the effects of r GLP-1 on LV systolic pressure, LV end diastolic pressure, LV dP/dt, and heart rate in conscious dogs with advanced DCM compared to saline control.
FIGS. 4a–4d show the effects of rGLP-1 on cardiac output, stroke volume, LV ejection fraction, systemic vascular resistance in conscious dogs with advanced DCM compared to saline control.
FIGS. 5a and 5b show the effects of rGLP-1 on stroke work and LV external efficiency in conscious dogs with advanced DCM compared to saline control.
FIGS. 6a and 6b show the effects of rGLP-1 on transmyocardial norepinephrine uptake as a reflection of sympathetic drive to the myocardium in conscious dogs with advanced DCM compared to saline controls.
as §1

The subject of another series is normal dogs. Briefly: 48 hour continuous intravenous infusion, hemodynamic effect in normal dogs. It counts as in vivo, dog. The conditions noted are these: 1.5 pmol/kg/min i.v. 48 hours; five normal dogs. As to the method: as §1
The subject of series [4] is patients with large myocardial infarction (LVEF<35%). Nature of the series: 72 hour continuous intravenous infusion in adults with severe acute myocardial infarction, LV function. It counts as in vivo, human. The following applies: 1.5 pmol/kg/min i.v. 72 hours after percutaneous coronary intervention; ten adults vs eleven on standard care. The method, then: The effects of continuous intravenous infusion of GLP-1 (1.5 pmol/kg/min) intravenously for 72 hours was studied in ten adults presenting with severe acute myocardial infarction. These were compared to eleven adults with similar large myocardial infarction (LVEF<35%) all of whom underwent percutaneous coronary intervention and subsequently were treated for 72 hours thereafter.

Series [5] relates to myocardial substrate uptake. Briefly: Myocardial substrate uptake and metabolic parameters in dogs with advanced DCM, 48 h infusion (Table 1). It counts as in vivo, dog. The conditions noted are these: for Glucose myocardial uptake / Lactate myocardial uptake / NE (transmyocardial norepinephrine uptake) / NEFA myocardial uptake: GLP-1 group (n = 9); for Insulin/Glucagon: ratio insulin (pmol/L) to glucagon (pg/ml), GLP-1 group. The method, then:
as §1

The mark [6] stands for this setting: hyperglycemia 10.4 mmol/l, hyperglycemia alone ~280 pmol/l.
Where [7] appears, read: hyperglycemia 187 mg/dl, hyperglycemia alone 47 μU/ml.
The mark [8] stands for this setting: 1.5 pmol/kg/min i.v. 48 hours, vs saline.
[9] abbreviates: Baseline (before CHF and infusion).
[10] abbreviates: advanced DCM, vs saline controls.

For “glucose-dependent insulinotropic polypeptide [GIP]”, the values for the plasma insulin levels in the series on plasma insulin (setting [6]) and in the series on plasma insulin (setting [7]) were roughly 900 pmol/L and 150 μU/ml, respectively. Also, in the series on plasma insulin (normal subjects, euglycemia), the “insulinotropic action during euglycemia” value is “not”.

`CC(CCc1ccc(O)cc1)NCCc1ccc(O)c(O)c1` (centres unmarked) [Dobutamine]: in series [1] (dogs with heart failure (advanced DCM), graded infusion), the “hemodynamic effects of graded infusion, heart failure” value is on record as “de-sensitized effects”. In series [1] (normal dogs, graded infusion), the “hemodynamic effects of graded infusion, normal dogs” value was “predictable effects”.

As for exendin-4 [excendin 4], in the series with restrained rats, the “blood pressure and heart rate” value is “hypertension and tachycardia”.

With GLP-1 (7–36 amide), in series [2], the “endothelial dependent vasodilatation (coronary flow) response to acetylcholine” value was “restoration” and the “response to the non-endothelial dependent vasodilator nitroglycerin” value was “unaffected”. Also, in series [2] (listed as rGLP-1), the “endothelial dependent vasodilatation (coronary flow) response to acetylcholine” value was “restored”. In series [3] (setting [8]), the LVEDP result was “reduction”, the cardiac output result was “improvement”, the contractility result is given as “improvement” and the heart rate entry was “reduction”. The left ventricular pressure entry in series [3] (setting [8]) is on record as “restoration”. In addition, the myocardial sympathetic activity result in series [3] (infusion compared to saline) is given as “suppression”. The “hemodynamic effects of chronic infusion” value in the series with normal dogs was “no significant hemodynamic effects”. The left ventricular function entry in series [4] was “improvement”. Besides, in series [5] (24 hrs of infusion), the Glucose myocardial uptake was found to be 8.72 ± 1.05 µmol/min, the Lactate myocardial uptake came to 3.61 ± 0.62 µmol/min, the “NE (transmyocardial norepinephrine uptake)” value was 26.3 ± 3.1 pmol/min and the NEFA myocardial uptake was determined as 4.53 ± 0.58 µmol/min. Besides, in series [5] (48 hrs of infusion), the Glucose myocardial uptake turned out to be 7.00 ± 0.94 µmol/min, the Lactate myocardial uptake is 4.04 ± 0.74 µmol/min, the “NE (transmyocardial norepinephrine uptake)” value is listed as 30.5 ± 4.9 pmol/min and the NEFA myocardial uptake came to 5.16 ± 0.73 µmol/min. The Insulin/Glucagon in series [5] (48 hrs of infusion) amounted to 3.12 ± 0.24. In series [5] (setting [9]), the Glucose myocardial uptake came to 6.67 ± 1.22 µmol/min, the Lactate myocardial uptake is 4.78 ± 1.04 µmol/min, the “NE (transmyocardial norepinephrine uptake)” value stood at 30.9 ± 4.8 pmol/min and the NEFA myocardial uptake was 5.23 ± 0.83 µmol/min. Also, in series [5] (setting [9]), the Insulin/Glucagon is given as 1.36 ± 0.21. Further, in series [5] (CHF (before infusion)), the Glucose myocardial uptake came out at 3.44 ± 0.81 µmol/min, the Lactate myocardial uptake came out at 2.64 ± 0.91 µmol/min, the “NE (transmyocardial norepinephrine uptake)” value is given as 18.7 ± 3.6 pmol/min and the NEFA myocardial uptake came to 3.17 ± 0.61 µmol/min. Further, the Insulin/Glucagon in series [5] (CHF (before infusion)) was 1.79 ± 0.29. Further, in series [5] (setting [10]), the “myocardial glucose uptake” value is listed as “enhanced” and the “ratio of insulin (pmol/L) to glucagon (pg/ml)” value is recorded as “significant increase”. In addition, the plasma insulin levels entry in series [5] (setting of euglycemia, advanced DCM) is reported as “little effect”. In addition, the “effects on left ventricular pressure, left ventricular dP/dt, cardiac output, heart rate” value in series [1] was “no significant, dose related effects”. Moreover, the “effects on left ventricular pressure, left ventricular dP/dt, cardiac output, heart rate” value in series [1] (listed as rGLP-1) is “no acute hemodynamic effects”. The plasma insulin levels with plasma insulin (setting [6]) is roughly 2000 pmol/L. Also, in the series on plasma insulin (setting [7]), the plasma insulin levels was 333 μU/ml. In addition, in the series on plasma insulin (hyperglycemia, infusion), the “relative potency as incretin” value is reported as “more potent than GIP”.
